Read-outs that look alike come from different tables or passages of the source. Values belong to the compound of their own block, whether it stands above or below them.
What was measured:
[1] = molecular target: T1, focal adhesion kinase (FAK) autophosphorylation at tyrosine 397 in HT29 cells (Homo sapiens, UniProt Q05397); assay: Cellular testing of FAK inhibitors: FAK autophosphorylation at tyrosine 397 in HT29 cells (Luminex-based assay); type: cell-based; conditions: 30 min serum-free
T1 construct: endogenous in cells; host or cells: HT29
Procedure: 2. Assay Principle for Celluar Testing of FAK Inhibitors
Cellular activity of focal adhesion kinase (FAK) is determined by the degree of FAK autophosphorylation at tyrosine 397 using a Luminex-based assay. HT29 cells are plated with 30,000 cells per well of a 96-well plate in 100 μl medium (90% DMEM/10% FCS). At the following day, test compounds are added in a serial dilution under serum-free conditions for 30 min. Then, cells were lysed with 90 μl lysis buffer (20 mM Tris/HCl pH 8.0, 150 mM NaCl, 1% NP40, 10% Glycerol, 1% Phosphatase-Inhibitor II, 20 mM […]-Glycerolphosphat, 0.1% Protease-Inhibitor Cocktail III, 0.01% Benzonase) and lysates were cleared by centrifugation through a 96-well filter plate (0.65 μm). Samples were incubated with Luminex-beads which were coupled with an anti-total FAK antibody overnight at 4° C. with under gentle agitation. For detection of phospho-Y397-FAK a phosphospecific antibody and a species specific PE-labeled secondary antibody are added. The amount of phospho-Y397-FAK is determined in a Luminex100 machine measuring 100 events per well within 60 seconds.
Counts from samples treated with a FAK reference inhibitor are subtracted as pharmacological blank. Counts from samples treated with test compounds are calculated as percent of control from solvent treated (0.3% DMSO) samples. IC50 values were determined using AssayExplorer software.

[2] = molecular target: T2, GST-FAK (N-terminal GST fusion with truncated human FAK (376-1052 (end) amino acids)) (Homo sapiens, UniProt Q05397); assay: Biochemical enzyme assay for FAK activity (Caliper LC3000 mobility shift); conditions: 100 uM ATP
T2 construct: truncated human FAK (376-1052 (end) amino acids)
Summary of the method: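 Inhibitor dose series in DMSO were incubated 90 min at 25 °C with truncated GST-tagged human FAK (0.067 ng/µl) and FITC-labelled peptide substrate (1 µM), with ATP at 100 µM and FERM peptide at 1 mM (pH 7.5 HEPES). After EDTA quench, phosphorylated and unphosphorylated peptides were resolved electrophoretically. Percent conversion was fitted for IC50.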

[3] = Table 4, phospho-Y397-FAK, read-out: IC50 HT-29
[4] = Table 2, phospho-Y397-FAK, read-out: HT-29 IC50
[5] = Table 3, phospho-Y397-FAK, read-out: HT-29 IC50

T1 sequence (Q05397 whole entry): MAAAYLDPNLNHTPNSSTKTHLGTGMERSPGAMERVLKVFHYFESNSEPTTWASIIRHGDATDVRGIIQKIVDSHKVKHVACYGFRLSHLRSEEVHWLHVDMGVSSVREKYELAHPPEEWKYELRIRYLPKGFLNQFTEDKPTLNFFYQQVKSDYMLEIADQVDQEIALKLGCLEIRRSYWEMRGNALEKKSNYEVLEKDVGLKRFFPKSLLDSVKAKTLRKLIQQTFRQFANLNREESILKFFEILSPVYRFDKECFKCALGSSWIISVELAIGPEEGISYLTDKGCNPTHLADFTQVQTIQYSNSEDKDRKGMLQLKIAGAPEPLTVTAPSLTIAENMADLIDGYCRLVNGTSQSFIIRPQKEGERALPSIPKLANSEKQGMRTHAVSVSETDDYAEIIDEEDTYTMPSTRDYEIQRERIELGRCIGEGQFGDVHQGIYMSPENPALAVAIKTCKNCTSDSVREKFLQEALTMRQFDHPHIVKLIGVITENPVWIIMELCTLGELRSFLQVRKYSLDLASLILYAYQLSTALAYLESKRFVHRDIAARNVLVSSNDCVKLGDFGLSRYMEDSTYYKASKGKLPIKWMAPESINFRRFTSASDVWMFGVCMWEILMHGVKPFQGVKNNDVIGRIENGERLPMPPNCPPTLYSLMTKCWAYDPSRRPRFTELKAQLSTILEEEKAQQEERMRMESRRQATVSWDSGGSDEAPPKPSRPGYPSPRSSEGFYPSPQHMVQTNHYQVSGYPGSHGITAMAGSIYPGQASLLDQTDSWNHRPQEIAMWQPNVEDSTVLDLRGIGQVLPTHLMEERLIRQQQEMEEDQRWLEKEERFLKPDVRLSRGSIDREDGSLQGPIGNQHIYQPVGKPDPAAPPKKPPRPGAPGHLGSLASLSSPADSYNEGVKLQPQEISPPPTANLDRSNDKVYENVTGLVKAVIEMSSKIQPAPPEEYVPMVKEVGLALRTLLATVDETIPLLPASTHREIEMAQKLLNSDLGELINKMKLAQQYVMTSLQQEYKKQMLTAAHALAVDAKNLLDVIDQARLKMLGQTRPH
T2 sequence (Q05397 376-1052): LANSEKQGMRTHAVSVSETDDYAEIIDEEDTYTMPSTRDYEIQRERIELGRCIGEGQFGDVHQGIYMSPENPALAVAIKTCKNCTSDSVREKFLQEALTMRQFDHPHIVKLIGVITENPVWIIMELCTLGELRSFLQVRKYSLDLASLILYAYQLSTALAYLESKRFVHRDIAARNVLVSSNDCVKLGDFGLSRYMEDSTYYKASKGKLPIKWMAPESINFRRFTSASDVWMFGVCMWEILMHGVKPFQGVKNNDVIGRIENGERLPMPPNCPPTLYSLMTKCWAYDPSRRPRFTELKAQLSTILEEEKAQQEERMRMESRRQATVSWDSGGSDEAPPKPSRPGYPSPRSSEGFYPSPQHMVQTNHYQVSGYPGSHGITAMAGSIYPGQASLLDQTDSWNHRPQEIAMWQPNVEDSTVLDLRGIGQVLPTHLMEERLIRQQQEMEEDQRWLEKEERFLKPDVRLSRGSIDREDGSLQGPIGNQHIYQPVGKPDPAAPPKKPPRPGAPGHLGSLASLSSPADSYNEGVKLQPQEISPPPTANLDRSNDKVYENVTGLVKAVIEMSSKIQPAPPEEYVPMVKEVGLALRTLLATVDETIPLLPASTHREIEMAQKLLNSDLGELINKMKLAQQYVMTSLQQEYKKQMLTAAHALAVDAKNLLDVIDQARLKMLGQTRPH

IC50 [1, 4]: 1 to 10 µM
IC50 ([2]; Table 2, read-out: FAK IC50): 0.1 to 1 µM
Structure (SMILES): NC(=O)C1CCN(c2cc(NCc3ccc(F)cc3F)nc(-c3cncc(C(F)(F)F)c3)n2)CC1 [Compound 59, 1-[6-(2,4-Difluoro-benzylamino)-2-(5-trifluoromethyl-pyridin-3-yl)-pyrimidin-4-yl]-piperidine-4-carboxylic acid amide]

IC50 [1, 4]: 1 to 10 µM
IC50 ([2]; Table 2, read-out: FAK IC50): < 0.1 µM
Structure (SMILES): NC(=O)C1CCN(C(=O)c2cc(NCc3ccc(F)cc3F)nc(-c3cncc(C(F)(F)F)c3)n2)CC1 [Compound 49, 1-[6-(2,4-Difluoro-benzylamino)-2-(5-trifluoromethyl-pyridin-3-yl)-pyrimidine-4-carbonyl]-piperidine-4-carboxylic acid amide]

IC50 [1, 3]: 0.1 to 1 µM
IC50 ([2]; Table 4, read-out: IC50 FAK): < 0.1 µM
Structure (SMILES): O=C(NCCN1CCCC1=O)c1cc(NCc2ccc(F)cc2F)nc(-c2cncc(C(F)(F)F)c2)n1 [Compound 160, 6-[(2,4-difluorophenyl)methylamino]-N-[2-(2-oxopyrrolidin-1-yl)ethyl]-2-[5-(trifluoromethyl)-3-pyridyl]pyrimidine-4-carboxamide]

IC50 [1, 4]: 1 to 10 µM
IC50 ([2]; Table 2, read-out: FAK IC50): 0.1 to 1 µM
Structure (SMILES): O=C(CCNc1cc(NCc2ccc(F)cc2F)nc(-c2cncc(C(F)(F)F)c2)n1)N1CCOCC1 [Compound 63, 3-[6-(2,4-Difluoro-benzylamino)-2-(5-trifluoromethyl-pyridin-3-yl)-pyrimidin-4-ylamino]-1-morpholin-4-yl-propan-1-one]

IC50 [1, 5]: 1 to 10 µM
IC50 ([2]; Table 3, read-out: FAK IC50): < 0.1 µM
Structure (SMILES): FC(F)(F)c1ccccc1CNc1ccnc(-c2cncc(Cl)c2)n1 [Compound 108, 2-(5-Chloropyridin-3-yl)-N-[2-(trifluoromethyl)benzyl]pyrimidin-4-amine]

IC50 [1, 5]: > 10 µM
IC50 ([2]; Table 3, read-out: FAK IC50): 0.1 to 1 µM
Structure (SMILES): FC(F)(F)c1ccccc1CNc1ccnc(-c2cccnc2)n1 [Compound 89, 2-Pyridin-3-yl-N-[2-(trifluoromethyl)benzyl]pyrimidin-4-amine]

IC50 ([2]; Table 5, read-out: FAK IC50): 0.1 to 1 µM
Structure (SMILES): C[C@@H](Nc1ccnc(-c2cncc(C(F)(F)F)c2)n1)c1ccc(F)cc1 [Compound 270, [(R)-1-(4-Fluoro-phenyl)-ethyl]-[2-(5-trifluoromethyl-pyridin-3-yl)-pyrimidin-4-yl]-amine]

IC50 ([2]; Table 3, read-out: FAK IC50): 0.1 to 1 µM
Structure (SMILES): Nc1ncccc1-c1nccc(NCc2cccc3c2OCO3)n1 [Compound 122, 2-(2-Aminopyridin-3-yl)-N-(1,3-benzodioxol-4-ylmethyl)pyrimidin-4-amine]

IC50 ([2]; Table 5, read-out: FAK IC50): > 10 µM
Structure (SMILES): O=C1c2ccccc2CN1c1ccnc(-c2cncc(C(F)(F)F)c2)n1 [Compound 235, 2-[2-(5-Trifluoromethyl-pyridin-3-yl)-pyrimidin-4-yl]-2,3-dihydro-isoindol-1-one]

IC50 ([2]; Table 5, read-out: FAK IC50): > 10 µM
Structure (SMILES): Fc1ccc(CNc2ccnc(-c3ccc(F)nc3)n2)c(F)c1 [Compound 217, (2,4-Difluoro-benzyl)-[2-(6-fluoro-pyridin-3-yl)-pyrimidin-4-yl]-amine]

Continued, compound first:

Structure (SMILES): Fc1ccc(F)c(CNc2ccnc(-c3cncc(C(F)(F)F)c3)n2)c1 [Compound 154, N-[(2,5-difluorophenyl)methyl]-2-[5-(trifluoromethyl)-3-pyridyl]pyrimidin-4-amine]
IC50 [1, 3]: 1 to 10 µM
IC50 ([2]; Table 4, read-out: IC50 FAK): 0.1 to 1 µM

Structure (SMILES): Nc1ncccc1-c1nccc(NCc2ccc(F)cc2C(F)(F)F)n1 [Compound 110, 2-(2-Aminopyridin-3-yl)-N-[4-fluoro-2-(trifluoromethyl)benzyl]pyrimidin-4-amine]
IC50 [1, 5]: 1 to 10 µM
IC50 ([2]; Table 3, read-out: FAK IC50): < 0.1 µM

Structure (SMILES): Fc1ccc(CNc2ccnc(-c3cncc(C(F)(F)F)c3)n2)c(F)c1 [Compound 125, N-(2,4-Difluorobenzyl)-2-[5-(trifluoromethyl)pyridin-3-yl]pyrimidin-4-amine]
IC50 [1, 5]: 1 to 10 µM
IC50 ([2]; Table 3, read-out: FAK IC50): < 0.1 µM

Structure (SMILES): Nc1ncc(Cl)cc1-c1nccc(NCc2ccc(F)cc2C(F)(F)F)n1 [Compound 134, 2-(2-Amino-5-chloropyridin-3-yl)-N-[4-fluoro-2-(trifluoromethyl)benzyl]pyrimidin-4-amine]
IC50 [1, 5]: 1 to 10 µM
IC50 ([2]; Table 3, read-out: FAK IC50): < 0.1 µM

Structure (SMILES): NC(=O)C1CCCN(c2cc(NCc3ccc(F)cc3F)nc(-c3cncc(C(F)(F)F)c3)n2)C1 (centres unmarked) [Compound 55, 1-[6-(2,4-Difluoro-benzylamino)-2-(5-trifluoromethyl-pyridin-3-yl)-pyrimidin-4-yl]-piperidine-3-carboxylic acid amide]
IC50 [1, 4]: 1 to 10 µM
IC50 ([2]; Table 2, read-out: FAK IC50): 0.1 to 1 µM

Structure (SMILES): FC(F)(F)c1cc(Cl)ccc1CNc1ccnc(-c2cncc(Cl)c2)n1 [Compound 118, 2-(5-Chloropyridin-3-yl)-N-[4-chloro-2-(trifluoromethyl)benzyl]pyrimidin-4-amine]
IC50 [1, 5]: 1 to 10 µM
IC50 ([2]; Table 3, read-out: FAK IC50): < 0.1 µM

Structure (SMILES): CCN(CC)C(=O)CCNC(=O)c1cc(NCc2ccc(F)cc2F)nc(-c2cncc(C(F)(F)F)c2)n1 [Compound 42, 6-(2,4-Difluoro-benzylamino)-2-(5-trifluoromethyl-pyridin-3-yl)-pyrimidine-4-carboxylic acid (2-diethylcarbamoyl-ethyl)-amide]
IC50 [1, 4]: 1 to 10 µM
IC50 ([2]; Table 2, read-out: FAK IC50): < 0.1 µM

Structure (SMILES): O=C(NCCCn1ccnc1)c1cc(NCc2ccc(F)cc2F)nc(-c2cncc(C(F)(F)F)c2)n1 [Compound 46, 6-(2,4-Difluoro-benzylamino)-2-(5-trifluoromethyl-pyridin-3-yl)-pyrimidine-4-carboxylic acid (3-imidazol-1-yl-propyl)-amide]
IC50 [1, 4]: 1 to 10 µM
IC50 ([2]; Table 2, read-out: FAK IC50): < 0.1 µM

Structure (SMILES): CN1CCC(CNC(=O)c2cc(NCc3ccc(F)cc3F)nc(-c3cncc(C(F)(F)F)c3)n2)C1 (centres unmarked) [Compound 51, 6-(2,4-Difluoro-benzylamino)-2-(5-trifluoromethyl-pyridin-3-yl)-pyrimidine-4-carboxylic acid (1-methyl-pyrrolidin-3-ylmethyl)-amide]
IC50 [1, 4]: 1 to 10 µM
IC50 ([2]; Table 2, read-out: FAK IC50): < 0.1 µM

Structure (SMILES): Fc1ccc(CNc2ccnc(-c3cncc(C(F)(F)F)c3)n2)c(C(F)(F)F)c1 [Compound 123, N-[4-Fluoro-2-(trifluoromethyl)benzyl]-2-[5-(trifluoromethyl)pyridin-3-yl]pyrimidin-4-amine]
IC50 [1, 5]: 1 to 10 µM
IC50 ([2]; Table 3, read-out: FAK IC50): < 0.1 µM

Structure (SMILES): Nc1ncccc1-c1cccc(NCc2ccccc2C(F)(F)F)c1 [Compound 104, 3-(3-{[2-(Trifluoromethyl)benzyl]amino}phenyl)pyridin-2-amine]
IC50 ([2]; Table 3, read-out: FAK IC50): > 10 µM

Structure (SMILES): CNCC(Nc1ccnc(-c2cccnc2)n1)c1ccccc1 (centres unmarked) [Compound 143, N2-Methyl-1-phenyl-N1-(2-pyridin-3-ylpyrimidin-4-yl)ethane-1,2-diamine]
IC50 ([2]; Table 3, read-out: FAK IC50): > 10 µM

Structure (SMILES): FC(F)(F)c1cncc(-c2nccc(Nc3cn[nH]c3)n2)c1 [Compound 239, (1H-Pyrazol-4-yl)-[2-(5-trifluoromethyl-pyridin-3-yl)-pyrimidin-4-yl]-amine]
IC50 ([2]; Table 5, read-out: FAK IC50): 1 to 10 µM

Structure (SMILES): CNC(=O)c1ccccc1Nc1ccnc(-c2cncc(C(F)(F)F)c2)n1 [Compound 256, N-Methyl-2-[2-(5-trifluoromethyl-pyridin-3-yl)-pyrimidin-4-ylamino]-benzamide]
IC50 ([2]; Table 5, read-out: FAK IC50): > 10 µM

Structure (SMILES): Fc1cc(Cl)ccc1CNc1ccnc(-c2cncc(C(F)(F)F)c2)n1 [Compound 35, (4-Chloro-2-fluoro-benzyl)-[2-(5-trifluoromethyl-pyridin-3-yl)-pyrimidin-4-yl]-amine]
IC50 ([2]; Table 1, read-out: FAK IC50): < 0.1 µM

Structure (SMILES): CS(=O)(=O)Nc1cccc(-c2nccc(NCc3ccc(F)cc3F)n2)c1 [Compound 241, N-{3-[4-(2,4-Difluoro-benzylamino)-pyrimidin-2-yl]-phenyl}-methanesulfonamide]
IC50 ([2]; Table 5, read-out: FAK IC50): > 10 µM

Structure (SMILES): Fc1ccc(CNc2ccnc(-c3cccnc3)n2)c(F)c1 [Compound 210, (2,4-Difluoro-benzyl)-(2-pyridin-3-yl-pyrimidin-4-yl)-amine]
IC50 ([2]; Table 5, read-out: FAK IC50): 0.1 to 1 µM

Structure (SMILES): Nc1ncccc1-c1nccc(NCc2ccccc2F)n1 [Compound 78, 2-(2-Aminopyridin-3-yl)-N-(2-fluorobenzyl)pyrimidin-4-amine]
IC50 ([2]; Table 3, read-out: FAK IC50): 0.1 to 1 µM

Structure (SMILES): CC1(C)Cc2cccc(CNc3ccnc(-c4cncc(C(F)(F)F)c4)n3)c2O1 [Compound 26, (2,2-Dimethyl-2,3-dihydro-benzofuran-7-ylmethyl)-[2-(5-trifluoromethyl-pyridin-3-yl)-pyrimidin-4-yl]-amine]
IC50 ([2]; Table 1, read-out: FAK IC50): > 10 µM

Structure (SMILES): COc1ccc(CNc2ccnc(-c3cncc(F)c3)n2)c(F)c1F [Compound 21, (2,3-Difluoro-4-methoxy-benzyl)-[2-(5-fluoro-pyridin-3-yl)-pyrimidin-4-yl]-amine]
IC50 ([2]; Table 1, read-out: FAK IC50): 1 to 10 µM

Structure (SMILES): FC(F)(F)c1cncc(-c2nccc(NCc3cccnc3)n2)c1 [Compound 238, Pyridin-3-ylmethyl-[2-(5-trifluoromethyl-pyridin-3-yl)-pyrimidin-4-yl]-amine]
IC50 ([2]; Table 5, read-out: FAK IC50): 0.1 to 1 µM

From patent publication US9199962B2, “Substituted azaheterocycles for the treatment of cancer” (Merck Patent GmbH, priority 2011, dated 2015)
